Assay results reported in the supplement of paper PMC11208160.

Assay: recombinant UMI read abundance after kanamycin selection (control-corrected) (log10(CPM+1)); higher = more efficient recombination; extreme values may be limits of the assay; sequences stand for … in AGTGCAGAGAAAATCGGCCAGTTTTCTCTGCCTGCAGTCCGCATGCCGTGGGACCCCTTGGGTTCTAACCTGTTGCCTAGATTTATGCAGCGGACTGCCTTTCTCCCAAAGTGATAAACCGG…AGGTTGGTTTCACT; site = the 11-nt donor
How it was run: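 Each donor and donor-binding-loop pair was tracked by a 12-nt UMI on a plasmid carrying a promoterless kanamycin gene. With a second plasmid supplying a fixed target and T7-inducible IS621 bridge recombinase, the pool was plated in Escherichia coli on IPTG (0.07 mM) plus kanamycin or unselected. Sequencing of recombinant UMIs across the donor–target junction gave counts expressed as log10(CPM+1) after replicate averaging and control-derived scaling.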
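Also: IS621 bridge recombinase in Escherichia coli cells against a fixed T5 target plasmid.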

Sequence | recombinant UMI read abundance (log10)
TGTTCCTCATGGACCGGTTTTCCCGGTAATCCGTATTTGTA (site TGTTCCCCTTA) | 0.00558
TGTTCCTCATGGACCGGTTTTCCCGGTAATCCGTATTTGTA (site TGTTCCGCTTA) | 0
TGTTCCTCATGGACCGGTTTTCCCGGTAATCCGTATTTGTA (site TGTTCCTCTTA) | 1.06
TGTTCGCCATGGACCGGTTTTCCCGGTAATCCGTATTTGTA (site TGTTCACCTTA) | 0
TGTTCGCCATGGACCGGTTTTCCCGGTAATCCGTATTTGTA (site TGTTCCCCTTA) | 0.0392
TGTTCGCCATGGACCGGTTTTCCCGGTAATCCGTATTTGTA (site TGTTCGCCTTA) | 0.0127
TGTTCGCCATGGACCGGTTTTCCCGGTAATCCGTATTTGTA (site TGTTCTCCTTA) | 0
TGTTTCCCATGGACCGGTTTTCCCGGTAATCCGTATTTGTA (site TGTTACCCTTA) | 0.139
TGTTTCCCATGGACCGGTTTTCCCGGTAATCCGTATTTGTA (site TGTTCCCCTTA) | 0.0148
TGTTTCCCATGGACCGGTTTTCCCGGTAATCCGTATTTGTA (site TGTTGCCCTTA) | 0.0291
TGTTTCCCATGGACCGGTTTTCCCGGTAATCCGTATTTGTA (site TGTTTCCCTTA) | 0.152
TGTTTGGCATGGACCGGTTTTCCCGGTAATCCGTATTTGCT (site AGTTTGGCTAG) | 0
TGTTTGGCATGGACCGGTTTTCCCGGTAATCCGTATTTGCT (site CGTTTGGCTAG) | 0.00328
TGTTTGGCATGGACCGGTTTTCCCGGTAATCCGTATTTGCT (site GGTTTGGCTAG) | 0.0409
TGTTTGGCATGGACCGGTTTTCCCGGTAATCCGTATTTGCT (site TGTTTGGCTAG) | 0
TTAATTTCATGGACCGGTTTTCCCGGTAATCCGTATTTGAA (site TTAATTTCTTT) | 0
TTACCTGCATGGACCGGTTTTCCCGGTAATCCGTATTTGTG (site TTAACTGCTCA) | 0.013
TTACCTGCATGGACCGGTTTTCCCGGTAATCCGTATTTGTG (site TTACCTGCTCA) | 0.0157
TTACCTGCATGGACCGGTTTTCCCGGTAATCCGTATTTGTG (site TTAGCTGCTCA) | 0.00404

Sequence | recombinant UMI read abundance (log10)
TTACCTGCATGGACCGGTTTTCCCGGTAATCCGTATTTGTG (site TTATCTGCTCA) | 0.00944
TTACGTCCATGGACCGGTTTTCCCGGTAATCCGTATTTGGT (site TTACGTCCTAC) | 0.02
TTACTGACATGGACCGGTTTTCCCGGTAATCCGTATTTGCC (site GGTTATCCTTC) | 0.00491
TTAGAGACATGGACCGGTTTTCCCGGTAATCCGTATTTGCG (site TAAGAGACTCG) | 0.923
TTAGAGACATGGACCGGTTTTCCCGGTAATCCGTATTTGCG (site TCAGAGACTCG) | 1.03
TTAGAGACATGGACCGGTTTTCCCGGTAATCCGTATTTGCG (site TGAGAGACTCG) | 0.02
TTAGAGACATGGACCGGTTTTCCCGGTAATCCGTATTTGCG (site TTAGAGACTCG) | 2.16
TTAGATGCATGGACCGGTTTTCCCGGTAATCCGTATTTGCC (site TTAGATGCTGG) | 1.9
TTAGCAGCATGGACCGGTTTTCCCGGTAATCCGTATTTGCC (site TTAGCAGCTGG) | 2.61
TTAGCAGCATGGACCGGTTTTCCCGGTAATCCGTATTTGTG (site TTAGCAGCTCA) | 0.707
TTAGCAGCATGGACCGGTTTTCCCGGTAATCCGTATTTGTG (site TTAGCCGCTCA) | 0.0121
TTAGCAGCATGGACCGGTTTTCCCGGTAATCCGTATTTGTG (site TTAGCGGCTCA) | 0.0104
TTAGCAGCATGGACCGGTTTTCCCGGTAATCCGTATTTGTG (site TTAGCTGCTCA) | 0.00315
TTAGCGGCATGGACCGGTTTTCCCGGTAATCCGTATTTGCT (site TTAGCGGCTAG) | 1.71
TTAGCGGCATGGACCGGTTTTCCCGGTAATCCGTATTTGCT (site TTCGCGGCTAG) | 0
TTAGCGGCATGGACCGGTTTTCCCGGTAATCCGTATTTGCT (site TTGGCGGCTAG) | 0
TTAGCGGCATGGACCGGTTTTCCCGGTAATCCGTATTTGCT (site TTTGCGGCTAG) | 0
TTAGCTGCATGGACCGGTTTTCCCGGTAATCCGTATTTGGG (site TTAGCTGCTCA) | 0
TTAGCTGCATGGACCGGTTTTCCCGGTAATCCGTATTTGGG (site TTAGCTGCTCC) | 0.0113

Sequence | recombinant UMI read abundance (log10)
TTAGCTGCATGGACCGGTTTTCCCGGTAATCCGTATTTGGG (site TTAGCTGCTCG) | 0.0143
TTAGCTGCATGGACCGGTTTTCCCGGTAATCCGTATTTGGG (site TTAGCTGCTCT) | 0
TTAGCTGCATGGACCGGTTTTCCCGGTAATCCGTATTTGTG (site ATAGCTGCTCA) | 0.183
TTAGCTGCATGGACCGGTTTTCCCGGTAATCCGTATTTGTG (site CTAGCTGCTCA) | 0.221
TTAGCTGCATGGACCGGTTTTCCCGGTAATCCGTATTTGTG (site GTAGCTGCTCA) | 0.0161
TTAGCTGCATGGACCGGTTTTCCCGGTAATCCGTATTTGTG (site TAAGCTGCTCA) | 0.00653
TTAGCTGCATGGACCGGTTTTCCCGGTAATCCGTATTTGTG (site TCAGCTGCTCA) | 0.0262
TTAGCTGCATGGACCGGTTTTCCCGGTAATCCGTATTTGTG (site TGAGCTGCTCA) | 0.0117
TTAGCTGCATGGACCGGTTTTCCCGGTAATCCGTATTTGTG (site TTAACTGCTCA) | 0.0107
TTAGCTGCATGGACCGGTTTTCCCGGTAATCCGTATTTGTG (site TTACCTGCTCA) | 0.00862
TTAGCTGCATGGACCGGTTTTCCCGGTAATCCGTATTTGTG (site TTAGATGCTCA) | 0.0477
TTAGCTGCATGGACCGGTTTTCCCGGTAATCCGTATTTGTG (site TTAGCAGCTCA) | 0.00587
TTAGCTGCATGGACCGGTTTTCCCGGTAATCCGTATTTGTG (site TTAGCCGCTCA) | 0
TTAGCTGCATGGACCGGTTTTCCCGGTAATCCGTATTTGTG (site TTAGCGGCTCA) | 0.00865
TTAGCTGCATGGACCGGTTTTCCCGGTAATCCGTATTTGTG (site TTAGCTACTCA) | 0.0282
TTAGCTGCATGGACCGGTTTTCCCGGTAATCCGTATTTGTG (site TTAGCTCCTCA) | 0.0123
TTAGCTGCATGGACCGGTTTTCCCGGTAATCCGTATTTGTG (site TTAGCTGCTAA) | 0.0166
TTAGCTGCATGGACCGGTTTTCCCGGTAATCCGTATTTGTG (site TTAGCTGCTCA) | 0.543
TTAGCTGCATGGACCGGTTTTCCCGGTAATCCGTATTTGTG (site TTAGCTGCTCC) | 0.0667
